{"source": "patent US5225528A", "about": "“Cyclic hexapeptide oxytocin antagonists” (priority 1990, dated 1993)", "note": "Numbered stars: 1 amine (or outer) side, 2 acyl side, 3 side chain; on linkers, the order of the positions; unused ones are H or OH. Square brackets hold non-standard residues; d marks the D form. Peptide text beside a SMILES is read from it. * marks the point of attachment. ξ: configuration not given here. X2 = O=C(OCc1ccccc1)N1CCN([*:1])[C@H](C(=O)[*:2])C1; d1Nal = N[C@H](Cc1cccc2ccccc12)C(=O)O; d2Nal = N[C@H](Cc1ccc2ccccc2c1)C(=O)O; dHis(π-Me) = Cn1cncc1C[C@@H](N)C(=O)O; d(aIle) = CC[C@H](C)[C@@H](N)C(=O)O; X12 = O=C([C@@H]1CCCNN1[*:1])[*:2]; Hyp = O=C(O)[C@@H]1C[C@@H](O)CN1; Pip(4-aza) = O=C(O)[C@@H]1CNCCN1; X6 = O=C([C@H]1CCCNN1[*:1])[*:2]; dNMeF = CN[C@H](Cc1ccccc1)C(=O)O; dPip(4-aza) = O=C(O)[C@H]1CNCCN1; Cha = N[C@@H](CC1CCCCC1)C(=O)O; dCha = N[C@H](CC1CCCCC1)C(=O)O; dChg = N[C@@H](C(=O)O)C1CCCCC1; dPhg = N[C@@H](C(=O)O)c1ccccc1; ξmTyr = NC(Cc1cccc(O)c1)C(=O)O; Chg = N[C@H](C(=O)O)C1CCCCC1; Phg = N[C@H](C(=O)O)c1ccccc1; Pip = O=C(O)[C@@H]1CCCCN1; dPip = O=C(O)[C@H]1CCCCN1; NMeA = CN[C@@H](C)C(=O)O; dNMeA = CN[C@H](C)C(=O)O; Boc = CC(C)(C)OC(=O)*; Bn = c1ccc(C*)cc1; Acm = CC(=O)NC*", "data": [{"biological_target": "T1, uterine OT receptors (Rattus norvegicus, UniProt P70536)", "T1 construct": "from tissue; host or cells: uterus of DES-treated rats, crude membranes", "T1 sequence (P70536 1-388)": "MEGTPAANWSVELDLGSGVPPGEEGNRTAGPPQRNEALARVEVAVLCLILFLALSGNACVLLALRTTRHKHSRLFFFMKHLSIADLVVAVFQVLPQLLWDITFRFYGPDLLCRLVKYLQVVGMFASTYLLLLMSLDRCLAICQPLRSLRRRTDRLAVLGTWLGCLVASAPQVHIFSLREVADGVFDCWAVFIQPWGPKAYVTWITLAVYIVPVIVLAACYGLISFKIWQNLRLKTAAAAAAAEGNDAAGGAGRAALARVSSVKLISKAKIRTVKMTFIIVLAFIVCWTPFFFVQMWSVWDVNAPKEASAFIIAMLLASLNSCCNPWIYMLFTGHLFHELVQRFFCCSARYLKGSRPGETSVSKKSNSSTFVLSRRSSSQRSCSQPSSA", "assay": "[^3 H]OT binding to uterine OT receptors, crude membrane preparation of uteri from DES-treated rats", "settings": "1 h; @ 10 (nM); read-out: [^3 H]OT: percent inhibition of radioligand at the given concentration", "description": "(§1) Competition studies were conducted at equilibrium (60 minutes; 22° C.) using 1 nM [^3 H]OT in the following assay buffer: 50 mM Tris-HCl, 5 mM MgCl2, and 0.1% BSA, pH 7.4.", "units": {"inhibition at 0.01 µM": "%"}, "values": [{"smiles": "CC[C@H](C)[C@@H]1NC(=O)[C@@H](Cc2cccc3ccccc23)NC(=O)[C@@H]2CCCN2C(=O)[C@@H](Cc2c[nH]cn2)NC(=O)[C@@H]2CCCCN2C(=O)[C@H]2CCCCN2C1=O", "note": "[Example 11, Cyclo[D-a-naphthalalanyl-L-isoleucyl-D-pipecolyl-L-pipecolyl-D-histidyl-L-prolyl]] (cyclo(I[dPip][Pip][dH]P[d1Nal]))", "inhibition at 0.01 µM": 39}]}, {"biological_target": "T1, uterine OT receptors", "assay": "[^3 H]OT binding to uterine OT receptors, crude membrane preparation of uteri from DES-treated rats", "settings": "1 h; @ 1,000 (nM); read-out: [^3 H]OT: percent inhibition of radioligand at the given concentration", "description": "as §1", "units": {"inhibition at 1 µM": "%"}, "values": [{"smiles": "CC[C@H](C)[C@@H]1NC(=O)[C@@H](Cc2ccccc2)NC(=O)[C@@H]2CCCN2C(=O)[C@@H](Cc2cncn2C)NC(=O)[C@@H]2CNCCN2C(=O)[C@H]2CCCCN2C1=O", "note": "[Example 178, c-[D-Phenylalany-L-isoleucinyl-D-pipecolyl-L-piperazin-2-yl-D-(N^immethyl)histidinyl-L-prolyl]] (cyclo(I[dPip][Pip(4-aza)][dHis(π-Me)]P[dF]))", "inhibition at 1 µM": 77}, {"smiles": "CC[C@H](C)[C@@H]1NC(=O)C(Cc2cccc(O)c2)NC(=O)[C@@H]2CCCN2C(=O)[C@@H](Cc2ccccc2)N(C)C(=O)[C@H](CCCCNC(=O)OC(C)(C)C)NC(=O)[C@H]2CCCCN2C1=O", "note": "(stereo partly drawn) [Example 143, C-[D,L-meta-Tyrosinyl-L-isoleucyl-D-pipecolyl-L-(N-t-butyloxycarbonyl)lysyl-D-(N-methyl)phenylalanyl-L-prolyl]] (cyclo(I[dPip]K(Boc)[dNMeF]P[ξmTyr]))", "inhibition at 1 µM": 68}, {"smiles": "CC[C@H](C)[C@@H]1NC(=O)[C@@H](Cc2ccccc2)NC(=O)[C@@H]2CCCN2C(=O)[C@@H](Cc2ccccc2)NC(=O)[C@@H]2CN(C(=O)OCc3ccccc3)CCN2C(=O)[C@H]2CCCN2C1=O", "note": "[Example 163, c-[D-Phenylalanyl-L-isoleucinyl-D-prolyl-L-piperazin-2-yl(4-Cbz)-D-phenylalanyl-L-prolyl]] (cyclo([dF]I[dP][X2][dF]P))", "inhibition at 1 µM": 49}]}, {"biological_target": "T1, uterine OT receptors", "assay": "[^3 H]OT binding to uterine OT receptors, crude membrane preparation of uteri from DES-treated rats", "settings": "rat uterus membranes, 1 nM [^3 H]OT; read-out: Receptor Binding Results IC50 (nM) [^3 H]OT", "description": "as §1", "units": {"IC50": "nM"}, "values": [{"smiles": "CC[C@H](C)[C@@H]1NC(=O)[C@@H](Cc2ccccc2)NC(=O)[C@@H]2CCCN2C(=O)[C@@H](Cc2ccccc2)NC(=O)[C@H](C)N(C)C(=O)[C@@H](C)N(C)C1=O", "note": "[Example 54, c-[D-Phenylalanyl-L-isoleucyl-N-methyl-D-alanyl-N-methyl-L-alanyl-D-phenylalanyl-L-prolyl]] (cyclo(I[dNMeA][NMeA][dF]P[dF]))", "IC50": 3000}, {"smiles": "CC[C@H](C)[C@@H]1NC(=O)[C@@H](CC2CCCCC2)NC(=O)[C@@H]2CCCN2C(=O)[C@@H](Cc2ccccc2)NC(=O)[C@@H]2CCCN2C(=O)[C@H]2CCCN2C1=O", "note": "[Example 55] (cyclo([dCha]I[dP]P[dF]P))", "IC50": 2500}, {"smiles": "O=C1N[C@@H](c2ccccc2)C(=O)N2CCC[C@@H]2C(=O)N2CCC[C@H]2C(=O)N[C@H](Cc2ccccc2)C(=O)N2CCC[C@H]2C(=O)N[C@@H]1Cc1ccccc1", "note": "[Example 63, c-[D-Phenylalanyl-L-phenylglycyl-D-prolyl-L-prolyl-D-phenylalanyl-L-prolyl]] (cyclo([dF]P[dF][Phg][dP]P))", "IC50": "> 10000"}, {"smiles": "CC[C@H](C)[C@@H]1NC(=O)[C@@H](Cc2ccccc2)NC(=O)[C@@H]2CCCN2C(=O)[C@@H](CSCNC(C)=O)NC(=O)[C@@H]2CCCN2C(=O)[C@H]2CCCN2C1=O", "note": "[Example 58, c-[D-Phenylalanyl-L-isoleucyl-D-prolyl-L-prolyl-D-cysteinyl(Acm)-L-prolyl]] (cyclo([dC](Acm)P[dF]I[dP]P))", "IC50": "> 10000"}, {"smiles": "CC[C@@H](C)[C@H]1NC(=O)[C@H](Cc2ccccc2)NC(=O)[C@H]2CCCN2C(=O)[C@H](Cc2ccccc2)NC(=O)[C@H]2CCCN2C(=O)[C@@H]2CCCN2C1=O", "note": "[Example 60, c-[L-Phenylalanyl-D-isoleucyl-L-prolyl-D-prolyl-L-phenylalanyl-D-prolyl]] (cyclo(F[dI]P[dP]F[dP]))", "IC50": "> 10000"}, {"smiles": "C[C@@H](O)[C@@H]1NC(=O)[C@@H](Cc2ccccc2)NC(=O)[C@@H]2CCCN2C(=O)[C@@H](Cc2ccccc2)NC(=O)[C@@H]2CCCN2C(=O)[C@H]2CCCN2C1=O", "note": "[Example 73, c-[D-Phenylalanyl-L-threoninyl-D-prolyl-L-prolyl-D-phenylalanyl-L-prolyl]] (cyclo([dF]P[dF]T[dP]P))", "IC50": "> 10000"}, {"smiles": "O=C1N[C@H](Cc2ccccc2)C(=O)N2CCC[C@H]2C(=O)N[C@H](Cc2ccccc2)C(=O)N2CCC[C@H]2C(=O)N2CCC[C@@H]2C(=O)N2CCC[C@@H]12", "note": "[Example 64, c-[D-Phenylalanyl-L-prolyl-D-prolyl-L-prolyl-D-phenylalanyl-L-prolyl]] (cyclo([dF]P[dF]P[dP]P))", "IC50": "> 10000"}, {"smiles": "CCOc1ccc(C[C@H]2NC(=O)[C@@H]3CCCN3C(=O)[C@@H](Cc3ccccc3)NC(=O)[C@H](CC(N)=O)NC(=O)[C@@H](CCC(N)=O)NC(=O)[C@@H]([C@@H](C)CC)NC2=O)cc1", "note": "[Example 101] (cyclo(N[dF]P[dY](Et)[d(aIle)][dQ]))", "IC50": "> 10000"}, {"smiles": "O=C1N[C@@H](CC2CCCCC2)C(=O)N2CCC[C@@H]2C(=O)N2CCC[C@H]2C(=O)N[C@H](Cc2ccccc2)C(=O)N2CCC[C@H]2C(=O)N[C@@H]1Cc1ccccc1", "note": "[Example 56, c-[D-Phenylalanyl-L-cyclohexylalanyl-D-prolyl-L-prolyl-D-phenylalanyl-L-prolyl]] (cyclo([dF]P[dF][Cha][dP]P))", "IC50": "> 10000"}, {"smiles": "CC[C@H](C)[C@@H]1NC(=O)[C@@H](Cc2ccccc2)NC(=O)[C@@H]2CCCN2C(=O)[C@@H](CSCc2ccccc2)NC(=O)[C@@H]2CCCN2C(=O)[C@H]2CCCN2C1=O", "note": "[Example 59, c-[D-Phenylalanyl-L-isoleucyl-D-prolyl-L-prolyl-D-crsteinyl(Bzl)-L-prolyl]] (cyclo([dC](Bn)P[dF]I[dP]P))", "IC50": "> 1000"}, {"smiles": "CC[C@H](C)[C@@H]1NC(=O)[C@@H](Cc2ccccc2)NC(=O)[C@@H]2CCCN2C(=O)[C@@H](Cc2ccccc2)NC(=O)[C@H](c2ccccc2)NC(=O)[C@@H](c2ccccc2)NC1=O", "note": "[Example 70, c-[D-Phenylalanyl-L-isoleucyl-D-phenylglycinyl-L-phenylglycinyl-D-phenylalanyl-L-prolyl]] (cyclo(I[dPhg][Phg][dF]P[dF]))", "IC50": "> 10000"}, {"smiles": "CC[C@H](C)[C@@H]1NC(=O)[C@@H](Cc2ccccc2)NC(=O)[C@@H]2CCCN2C(=O)[C@@H](Cc2ccccc2)NC(=O)[C@H](Cc2c[nH]cn2)NC(=O)[C@@H](Cc2c[nH]cn2)NC1=O", "note": "[Example 69, c[D-Phenylalanyl-L-isoleucyl-D-histidinyl-L-histidinyl-D-phenylalanyl-L-prolyl]] (cyclo(H[dF]P[dF]I[dH]))", "IC50": 10000}, {"smiles": "CC[C@H](C)[C@@H]1NC(=O)[C@@H](Cc2ccccc2)NC(=O)[C@@H]2CCCN2C(=O)[C@@H](Cc2ccccc2)NC(=O)[C@@H]2CCCN2C(=O)[C@H]2CCCN2C1=O", "note": "[Example 53, c-[D-Phenylalanyl-L-isoleucyl-D-prolyl-L-prolyl-D-phenylalanyl-L-prolyl]] (cyclo([dF]P[dF]I[dP]P))", "IC50": 2600}, {"smiles": "CC[C@H](C)[C@@H]1NC(=O)[C@@H](Cc2ccc(O)cc2)NC(=O)[C@@H]2CCCN2C(=O)[C@@H](Cc2ccccc2)NC(=O)[C@@H]2CCCNN2C(=O)[C@H]2CCCNN2C1=O", "note": "[Example 97] (cyclo([dY]I[X6][X12][dF]P))", "IC50": "> 10000"}, {"smiles": "C[C@@H](OCc1ccccc1)[C@@H]1NC(=O)[C@@H](Cc2ccccc2)NC(=O)[C@@H]2CCCN2C(=O)[C@@H](Cc2ccccc2)NC(=O)[C@@H]2CCCN2C(=O)[C@H]2CCCN2C1=O", "note": "[Example 72, c-[D-Phenylalanyl-L-(O-benzyl)-threoninyl-D-prolyl-L-prolyl-D-phenylalanyl-L-prolyl]] (cyclo([dF]P[dF]T(Bn)[dP]P))", "IC50": "> 10000"}, {"smiles": "CC[C@H](C)[C@@H]1NC(=O)[C@@H](Cc2ccccc2)NC(=O)[C@@H]2CCCN2C(=O)[C@@H]([C@H](C)OCc2ccccc2)NC(=O)[C@@H]2CCCN2C(=O)[C@H]2CCCN2C1=O", "note": "[Example 61, c-[D-Phenylalanyl-L-isoleucyl-D-prolyl-L-prolyl-D-threoninyl(Bzl)-L-prolyl]] (cyclo([dT](Bn)P[dF]I[dP]P))", "IC50": "> 10000"}, {"smiles": "CC[C@H](C)[C@@H]1NC(=O)[C@@H](Cc2ccc3ccccc3c2)NC(=O)[C@@H]2CCCN2C(=O)[C@@H](Cc2c[nH]cn2)NC(=O)[C@H]2CNCCN2C(=O)[C@H]2CCCCN2C1=O", "note": "[Example 161, c-[D-2-Naphthylalanyl-L-isoleucyl-D-pipecolyl-D-piperazin-2-yl-D-histidyl-L-prolyl]] (cyclo(I[dPip][dPip(4-aza)][dH]P[d2Nal]))", "IC50": 6.7}, {"smiles": "CC[C@H](C)[C@@H]1NC(=O)[C@@H](Cc2ccccc2)NC(=O)[C@@H]2CCCN2C(=O)[C@@H](Cc2ccccc2)NC(=O)[C@@H]2C[C@@H](O)CN2C(=O)[C@H]2CCCN2C1=O", "note": "[Example 71, c-[D-Phenylalanyl-L-isoleucyl-D-prolyl-L-trans-hydroxyprolyl-D-phenylalanyl-L-prolyl]] (cyclo([Hyp][dF]P[dF]I[dP]))", "IC50": "> 10000"}, {"smiles": "CC[C@H](C)[C@@H]1NC(=O)[C@@H](Cc2ccccc2)NC(=O)[C@@H]2CCCN2C(=O)[C@@H](Cc2ccccc2)NC(=O)[C@H](C)NC(=O)[C@@H](C)NC1=O", "note": "[Example 51, c-[D-Phenylalanyl-L-isoleucyl-D-alanyl-L-alanyl-D-phenylalanyl-L-prolyl]] (cyclo(A[dF]P[dF]I[dA]))", "IC50": "> 10000"}, {"smiles": "CC[C@H](C)[C@@H]1NC(=O)[C@@H](Cc2ccccc2)NC(=O)[C@@H]2CCCN2C(=O)[C@@H](Cc2ccccc2)NC(=O)[C@H](C2CCCCC2)NC(=O)[C@@H](C2CCCCC2)NC1=O", "note": "[Example 65] (cyclo([Chg][dF]P[dF]I[dChg]))", "IC50": "> 10000"}]}]}
